≈ marks a conversion by molar mass, not a printed value. Read-outs that look alike come from different tables or passages of the source.
Assays:
[1] = target: adenine riboswitch RNA (AR); assay: Isothermal titration calorimetry, adenine riboswitch RNA; format: binding; details: 50 mM K+HEPES, pH 7.5, 100 mM KCl, 10 mM MgCl2, 30° C.
Method: Isothermal Titration Calorimetry. […] All experiments were performed with a Microcal MCS ITC instrument at 30° C. […] Titration data was analyzed using Origin ITC software (Microcal Software Inc.) and fit to a single-site binding model.

[2] = test system: guanine riboswitch RNA (GR); assay: Isothermal titration calorimetry, guanine riboswitch RNA; format: binding, B. subtilis
Text: Isothermal Titration Calorimetry. RNA for isothermal titration calorimetry (ITC) (Leavitt, S. & Freire, E. Direct measurement of protein binding energetics by isothermal titration calorimetry. Curr Opin Struct Biol 11, 560-6 (2001); Pierce, M., Raman, C. S. & Nall, B. T. Isothermal titration calorimetry of protein-protein interactions. […]

[3] = target: guanine riboswitch (aptamer of the xpt-pbuX mRNA); assay: In-line probing of ligand binding to the guanine riboswitch in vitro; set-up: species or system B. subtilis; details: for Kd: high Mg2+ ion concentrations (20 mM MgCl2), read-out: observed dissociation constant (Kd)
Text: The putative anti-terminator interaction is represented by the boxes. Nucleotides that undergo structural alteration as determined by in-line probing (from C) are identified with squares. […] Asterisks denote alterations to the RNA sequence that facilitate in vitro transcription (5′ terminus) or that generate a restriction site (3′ terminus). Nucleotide numbers begin at the first nucleotide of the natural transcription start site. The translation start codon begins at position 186. […] Lanes designated NR, T1 and ^−OH contain RNA that was not reacted, subjected to partial digestion with RNase T1 (G-specific cleavage), or subjected to partial alkaline digestion, respectively. Selected bands corresponding to G-specific cleavage are identified.
Differences in chemical structure relative to guanine are encircled. Numbers on guanine represent the positions of the ring nitrogen atoms.
NR, T1 and OH identify no reaction, nuclease T1 partial digestion, and alkaline partial digestion respectively. In-line probing assays were conducted for ˜1 day, and a dampening of spontaneous RNA cleavage product bands in the J1/2, J2/3 and J3/1 regions are indicative of ligand binding.

[4] = target: purR repressor protein (Escherichia coli, UniProt P0ACP7); details: read-out: observed Kd; E. coli variant of purR repressor; cited from earlier work
[5] = test system: methicillin-resistant Staphylococcus aureus; assay: Minimal inhibitory concentration, clinically relevant pathogens; format: cell-based; details: MRSA, read-out: Minimal inhibitory concentrations, MRSA
[6] = test system: Bacillus anthracis; assay: microbe, parasite or virus in culture; format: cell-based; details: read-out: Minimal inhibitory concentrations, BA
[7] = test system: Streptococcus pneumoniae; assay: Minimal inhibitory concentration, clinically relevant pathogens; format: cell-based; details: read-out: Minimal inhibitory concentrations, SP
[8] = test system: Haemophilus influenza; assay: as above; format: cell-based; details: pathogen without guanine riboswitch, read-out: Minimal inhibitory concentrations, HI
[9] = test system: Mycobacterium smegmatis; assay: as above; format: cell-based; details: Mycolicibacterium smegmatis; pathogen without guanine riboswitch; read-out: Minimal inhibitory concentrations, MS
[10] = 50 mM K+HEPES, 100 mM KCl, 10 mM MgCl2, 30° C.
[11] = 50 mM K+HEPES, 100 mM KCl, 10 mM MgCl2, 30° C., read-out: Kd

Sequence of purR repressor protein (P0ACP7 whole entry): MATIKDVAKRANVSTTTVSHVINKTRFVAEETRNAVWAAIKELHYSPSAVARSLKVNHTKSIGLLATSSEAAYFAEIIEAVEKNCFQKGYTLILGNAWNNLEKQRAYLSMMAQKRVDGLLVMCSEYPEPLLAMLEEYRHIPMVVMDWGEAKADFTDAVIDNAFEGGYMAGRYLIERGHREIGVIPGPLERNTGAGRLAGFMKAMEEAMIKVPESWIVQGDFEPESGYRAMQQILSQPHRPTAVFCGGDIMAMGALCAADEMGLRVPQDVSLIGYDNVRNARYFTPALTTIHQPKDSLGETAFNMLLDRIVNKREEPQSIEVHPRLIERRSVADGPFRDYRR

SMILES	Kd [1] [nM]	ΔH [1] [kcal/mol]	ΔS [1] [Cal/mol · deg]	ΔH [2, 10] [kcal/mol]	ΔS [2, 10] [cal/mol · deg]	Kd [2, 11] [nM]	other results
c1ncc2[nH]cnc2n1 [Purine]	110000 ± 3000	-25.4 ± 0.99	−65.4 ± 3.00	–	–	–	–
O=c1[nH]c(=O)c2[nH]cnc2[nH]1 [Xanthine]	–	–	–	-34.6 ± 10.4	−94.4 ± 34.5	50500 ± 5800	–
Nc1nc2nc[nH]c2c(=S)[nH]1 [6-Thioguanine]	–	–	–	-40.6 ± 14.5	−101 ± 47.5	73.7 ± 10	–
Nc1nc(Br)c2[nH]cnc2n1 [6-Bromoguanine]	2700 ± 1160	-50.4 ± 0.16	−141 ± 1.90	-39.0 ± 7.79	−103 ± 26.2	2120 ± 560	–
O=c1[nH]cnc2nc[nH]c12 [Hypoxanthine]	–	–	–	-31.3 ± 0.01	−75.3 ± 0.145	759 ± 66	Kd [3]: 50 nM; ΔHobs ([2]; 0.25 mM MgCl2, 30° C.): -41.9 ± 0.39 kcal/mol; ΔSobs ([2]; 0.25 mM MgCl2, 30° C.): −113 cal mol^−1 K^−1; Kd ([2]; 0.25 mM MgCl2, 30° C., read-out: Kd): 4000 ± 190 nM; ΔHobs ([2]; 1.0 mM MgCl2, 30° C.): -35.4 ± 0.93 kcal/mol; ΔSobs ([2]; 1.0 mM MgCl2, 30° C.): −91 cal mol^−1 K^−1; Kd ([2]; 1.0 mM MgCl2, 30° C., read-out: Kd): 2990 ± 190 nM; ΔHobs ([2]; 5.0 mM MgCl2, 30° C.): -28.4 ± 0.48 kcal/mol; ΔSobs ([2]; 5.0 mM MgCl2, 30° C.): −67 cal mol^−1 K^−1; Kd ([2]; 5.0 mM MgCl2, 30° C., read-out: Kd): 1340 ± 94 nM; ΔHobs ([2]; 20 mM MgCl2, 30° C.): -33.5 ± 0.43 kcal/mol; ΔSobs ([2]; 20 mM MgCl2, 30° C.): −82 cal mol^−1 K^−1; Kd ([2]; 20 mM MgCl2, 30° C., read-out: Kd): 732 ± 34 nM; Kd ([2]; ITC, more physiological ionic strength (0.25-1 mM Mg2+), read-out: observed Kd): 3000 to 4000 nM; Kd [4]: 9000 nM
Cc1ncnc2nc[nH]c12 [6-Methylpurine]	25200 ± 1630	-31.5 ± 0.42	−82.9 ± 1.25	–	–	–	–
Nc1nc2nn[nH]c2c(=O)[nH]1 [Compound 8-Azaguanine, 8-Azaguanine]	–	–	–	-46.9 ± 9.87	−121 ± 32.6	48.7 ± 100	–
Nc1cc(N)nc(N)n1 [2,4,6-Triaminopyrimidine]	18300 ± 1670	-37.7 ± 0.23	−102 ± 0.70	–	–	–	–
Nc1ncnc2nc[nH]c12 [Adenine]	469 ± 41	-34.5 ± 0.05	−84.8 ± 0.30	–	–	–	–
Nc1ncc2[nH]cnc2n1 [2-Aminopurine]	251 ± 26	-31.8 ± 2.64	−73.9 ± 9.26	-46.4 ± 2.66	−129 ± 8.20	4360 ± 1200	–
Nc1nc(Cl)c2nc[nH]c2n1 [6-Chloroguanine]	721 ± 44	-44.3 ± 7.2	−98.6 ± 4.39	-43.6 ± 13.1	−116 ± 43.2	856 ± 14	–
Nc1nc(N)c2[nH]cnc2n1 [2,6-Diaminopurine]	17 ± 6	-40.3 ± 2.91	−97.6 ± 4.00	–	–	–	–
Nc1nc2c(c(=O)[nH]1)CC=N2 [7-Deazaguanine]	–	–	–	-42.0 ± 3.72	−105 ± 11.7	49 ± 13	–
CN[C@H](CC(C)C)C(=O)N[C@H]1C(=O)N[C@@H](CC(N)=O)C(=O)N[C@H]2C(=O)N[C@H]3C(=O)N[C@H](C(=O)N[C@H](C(=O)O)c4cc(O)cc(O)c4-c4cc3ccc4O)[C@H](O)c3ccc(c(Cl)c3)Oc3cc2cc(c3O[C@@H]2O[C@H](CO)[C@@H](O)[C@H](O)[C@H]2O[C@H]2C[C@](C)(N)[C@H](O)[C@H](C)O2)Oc2ccc(cc2Cl)[C@H]1O [Vancomycin]	–	–	–	–	–	–	MIC [5]: 1 µg/mL (≈ 0.69 µM); MIC [6]: 1.5 µg/mL (≈ 1.04 µM); MIC [7]: 0.25 µg/mL (≈ 0.173 µM); MIC [8]: 64 µg/mL (≈ 44.2 µM); MIC [9]: 24 µg/mL (≈ 16.6 µM)
Nc1nc(F)nc2nc[nH]c12 [2-Fluoroadenine]	4020 ± 1070	-37.4 ± 3.41	−98.7 ± 11.8	–	–	–	–
Nc1nc(N)c(N)c(N)n1 [2,4,5,6-Tetraaminopyrimidine]	24900 ± 4250	-43.2 ± 3.50	−122 ± 12.0	–	–	–	–
Nc1nc2nc[nH]c2c(=O)[nH]1 [Guanine]	–	–	–	-53.5 ± 6.98	−137 ± 24.8	4 ± 3	affinity of the riboswitch for guanine over hypoxanthine [3]: tenfold; Kd [3]: 5 nM
CSc1nc(N)nc2nc[nH]c12 [6-Methylthioguanine]	–	–	–	-24.5 ± 0.20	−46.9 ± 0.24	41.8 ± 3	–
COc1nc(N)nc2nc[nH]c12 [O-Methylguanine]	–	–	–	-18.7	−23.3	3	–

— patent publication US20080269258A1, “Riboswitches, Structure-Based Compound Design with Riboswitches, and Methods and Compositions for Use of and with Riboswitches” (priority 2004, published 2008)
